Assay results as given in patent US20230355597A1, “COMPOUNDS, COMPOSITIONS, AND METHODS FOR THE TREATMENT AND PREVENTION OF AVIAN PATHOGENIC E. COLI (APEC)” (OHIO STATE INNOVATION FOUNDATION, priority 2018, published 2023).
In brackets after ≈: the same amount, converted by molar mass. Marks after values point to notes of the source that are not given here.

What was measured:
[1] = system: AI-2 activity of APEC O35; assay: AI-2 bioluminescence indicator assay (V. harveyi BB170); conditions: APEC O35, 100 µM
[2] = system: AI-2 activity of APEC O115; assay: as above; conditions: APEC O115, 100 µM
[3] = system: AI-2 activity of APEC O109; assay: as above; conditions: APEC O109, 100 µM
[4] = system: AI-2 activity of APEC O78; assay: as above; conditions: APEC O78, 100 µM
Rif^r APEC O78 [5] = assay: In vivo screening of quorum sensing inhibitors in APEC infected broiler chickens
AI-2 activity of APEC O2 = assay: AI-2 bioluminescence indicator assay (V. harveyi BB170); conditions: APEC O2, 100 µM
[6] = system: AI-2 activity of APEC O15; assay: as above; conditions: APEC O15, 100 µM
AI-2 activity of APEC O1 = assay: as above; conditions: APEC O1, 100 µM
AI-2 activity of APEC O8 = assay: as above; conditions: APEC O8, 100 µM
Rif^r APEC O78 [7] = assay: Wax moth (Galleria mellonella) larva infection model (AI-2 inhibitors)
[8] = system: AI-2 activity of APEC O18; assay: AI-2 bioluminescence indicator assay (V. harveyi BB170); conditions: APEC O18, 100 µM
[9] = system: intracellular APEC O1 in HD11 cells; assay: Intracellular survival assay (cidal SMs); conditions: O1, HD11, 6 h treatment; superscript = multiple of MIC
[10] = system: biofilm embedded APEC O78; assay: MBEC High-throughput assay; assay type: cell-based, avian pathogenic Escherichia coli (APEC); conditions: biofilm embedded APEC O78; superscript = multiple of MIC (footnote)
Description: Effect against biofilm embedded APEC. The effect of cidal SMs against biofilm embedded APEC was determined using MBEC High-throughput (HTP) assay (Innovotech Inc., AB, Canada). Briefly, 150 µL of 0.05 OD600 adjusted APEC O78 culture was aliquoted into each well of the MBEC device containing polystyrene pegs and incubated at 37° C. for 36 h in LB media under stationary condition. […] The plate was incubated in the dark for 18 h at 37° C. with rotation at 110 rpm. The DMSO (1%) and M63 media were used as positive and negative controls, respectively. Following incubation, MIC of SMs in challenged plate was recorded. The SMs exposed pegs were then transferred to a new 96-well plate containing PBS and sonicated for 30 mins (Aquasonic ultrasonic cleaner, VWR) to disrupt the biofilm. […] Biofilm embedded APEC bacteria were enumerated and minimum biofilm eradication concentration (MBEC) of […] were determined. Two independent experiments were conducted.

APEC O78 [11] = assay: Loss of 260/280 nm absorbing materials assay; assay type: cell-based, avian pathogenic Escherichia coli (APEC); conditions: 2X MBC, 1 h, *P<0.05 vs DMSO
APEC O78 [12] = assay: Confocal microscopy bacterial cytological profiling; assay type: cell-based, avian pathogenic Escherichia coli (APEC); conditions: 2X MBC
Description: Confocal and scanning electron microscopy. Confocal microscopy was used for bacterial cytological profiling (BCP) to identify the cellular pathways targeted by SMs as described previously. […] After incubation, treated cultures were centrifuged, washed, and resuspended in 100 μL PBS. […] Cultures were then centrifuged, washed, and resuspended in PBS to 1⁄10th volume of the original cultures.

[13] = system: intracellular APEC O2 in THP-1 cells; assay: Intracellular survival assay (cidal SMs); conditions: O2, THP-1, 6 h treatment; superscript = multiple of MIC
APEC O2-211 = assay type: cell-based, avian pathogenic Escherichia coli (APEC); conditions: APEC O2-211, M63 media; MIC/MBC
APEC O1 = assay type: cell-based, avian pathogenic Escherichia coli (APEC); conditions: APEC O1, M63 media; MIC/MBC
[14] = system: intracellular APEC O2 in Caco-2 cells; assay: Intracellular survival assay (cidal SMs); conditions: O2, Caco-2, 6 h treatment; superscript = multiple of MIC
APEC O78 [15] = assay type: cell-based, avian pathogenic Escherichia coli (APEC)
APEC O18 = assay type: cell-based, avian pathogenic Escherichia coli (APEC); conditions: APEC O18, M63 media; MIC/MBC
APEC O1-63 = assay type: cell-based, avian pathogenic Escherichia coli (APEC); conditions: APEC O1-63, M63 media; MIC/MBC
[16] = system: intracellular APEC O1 in THP-1 cells; assay: Intracellular survival assay (cidal SMs); conditions: O1, THP-1, 6 h treatment; superscript = multiple of MIC
APEC O115 = assay type: cell-based, avian pathogenic Escherichia coli (APEC); conditions: APEC O115, M63 media; MIC/MBC
[17] = system: intracellular APEC O78 in Caco-2 cells; assay: Intracellular survival assay (cidal SMs); conditions: O78, Caco-2, 6 h treatment; superscript = multiple of MIC
APEC O109 = assay type: cell-based, avian pathogenic Escherichia coli (APEC); conditions: APEC O109, M63 media; MIC/MBC
[18] = system: intracellular APEC O78 in HD11 cells; assay: Intracellular survival assay (cidal SMs); conditions: O78, HD11, 6 h treatment; superscript = multiple of MIC
Rif^r APEC O78 [19] = assay: In vivo efficacy of growth inhibitors in APEC infected broiler chickens
[20] = system: intracellular APEC O2 in HD11 cells; assay: Intracellular survival assay (cidal SMs); conditions: O2, HD11, 6 h treatment; superscript = multiple of MIC
APEC O78-53 = assay type: cell-based, avian pathogenic Escherichia coli (APEC); conditions: APEC O78-53, M63 media; MIC/MBC
[21] = system: intracellular APEC O1 in Caco-2 cells; assay: Intracellular survival assay (cidal SMs); conditions: O1, Caco-2, 6 h treatment; superscript = multiple of MIC
[22] = system: intracellular APEC O78 in THP-1 cells; assay: Intracellular survival assay (cidal SMs); conditions: O78, THP-1, 6 h treatment; superscript = multiple of MIC
APEC O35 = assay type: cell-based, avian pathogenic Escherichia coli (APEC); conditions: APEC O35, M63 media; MIC/MBC
APEC O2 = assay type: cell-based, avian pathogenic Escherichia coli (APEC); conditions: APEC O2, M63 media; MIC/MBC
APEC O8 = assay type: cell-based, avian pathogenic Escherichia coli (APEC); conditions: APEC O8, M63 media; MIC/MBC
APEC O15 = assay type: cell-based, avian pathogenic Escherichia coli (APEC); conditions: APEC O15, M63 media; MIC/MBC

Cc1ccccc1N1CCN(C2CCCN(C(=O)c3ccc(F)c(Cl)c3)C2)CC1 (centres unmarked) [C2, 1-[1-{3-chloro-4-fluorbenzoyl)-3-piperdinyl]-4-(2-methylphenyl)piperazine]
Inhibition % of AI-2 activity [1]: 55% | Inhibition % of AI-2 activity [2]: 52% | Inhibition % of AI-2 activity [3]: 57% | Inhibition % of AI-2 activity [4]: 92% | reduction in chicken mortality (Rif^r APEC O78 [5]; DMSO control mortality normalized to 100%): 50% | Mortality rate (%) (Rif^r APEC O78 [5]; oral gavage once a day, day 4 to day 8, DMSO control 66.7%): 33.3% | Reduction in APEC lesions severity, Air-sacs (%) (Rif^r APEC O78 [5]; vs DMSO treated control): 63.3% | Reduction in APEC lesions severity, Heart (%) (Rif^r APEC O78 [5]; vs DMSO treated control): 37.5% | Reduction in APEC lesions severity, Liver (%) (Rif^r APEC O78 [5]; vs DMSO treated control): 45.5% | Reduction in APEC lesions severity, Lung (%) (Rif^r APEC O78 [5]; vs DMSO treated control): 88.9% | Inhibition % of AI-2 activity (AI-2 activity of APEC O2): 96% | Inhibition % of AI-2 activity [6]: 27% | Inhibition % of AI-2 activity (AI-2 activity of APEC O1): 64% | Inhibition % of AI-2 activity (AI-2 activity of APEC O8): 20% | larval death (Rif^r APEC O78 [7]; 48 h post treatment): no larval death | clearance of APEC in live larvae (Rif^r APEC O78 [7]; 72 h): 100% | Inhibition % of AI-2 activity [8]: 43%

COc1cc(CNCCc2ccc(C)cc2)ccc1OCC(O)CN1CCCC1 (centres unmarked) [SM3]
SMs intracellular APEC clearance concentration [9]: 200^b µM | MBEC [10]: 50^b µM | Absorbance 260 (APEC O78 [11]; 260 nm absorbing material in supernatant): 3.77 | Absorbance 280 (APEC O78 [11]; 280 nm absorbing material in supernatant): 2.84* | cytological profile (confocal, FM4-64 / SYTO-9) (APEC O78 [12]): membrane pore formers | SMs intracellular APEC clearance concentration [13]: 100^a µM | MBC (APEC O2-211): 100 µM (≈ 39.9 µg/mL) | MIC (APEC O2-211): 100 µM (≈ 39.9 µg/mL) | MBC (APEC O1): 200 µM (≈ 79.7 µg/mL) | MIC (APEC O1): 100 µM (≈ 39.9 µg/mL) | SMs intracellular APEC clearance concentration [14]: >200 µM | MBC relative to MIC (APEC O78 [15]; APEC O78): identical to MIC | MIC (APEC O78 [15]; APEC O78, M63 media, MIC/MBC): 100 µM (≈ 39.9 µg/mL) | MBC (APEC O78 [15]; APEC O78, M63 media, cell prints MIC/MBC): 100 µM (≈ 39.9 µg/mL) | MBC (APEC O18): 100 µM (≈ 39.9 µg/mL) | MIC (APEC O18): 100 µM (≈ 39.9 µg/mL) | MBC (APEC O1-63): 200 µM (≈ 79.7 µg/mL) | MIC (APEC O1-63): 200 µM (≈ 79.7 µg/mL) | SMs intracellular APEC clearance concentration [16]: 200^b µM | MBC (APEC O115): 100 µM (≈ 39.9 µg/mL) | MIC (APEC O115): 100 µM (≈ 39.9 µg/mL) | SMs intracellular APEC clearance concentration [17]: 100^a µM | MBC (APEC O109): 200 µM (≈ 79.7 µg/mL) | MIC (APEC O109): 100 µM (≈ 39.9 µg/mL) | SMs intracellular APEC clearance concentration [18]: 100^a µM | reduction of average APEC load in internal organs (Rif^r APEC O78 [19]; average of liver, heart, lung and kidney, vs untreated control): either exacerbated or did not reduce | reduction of APEC lesions severity (%), Air-sacs (airsacculitis) (Rif^r APEC O78 [19]; untreated control = 100%): -29.4% | reduction of APEC lesions severity (%), Heart (pericarditis) (Rif^r APEC O78 [19]; untreated control = 100%): 4% | reduction of APEC lesions severity (%), Liver (perihepatitis) (Rif^r APEC O78 [19]; untreated control = 100%): -20% | reduction of APEC lesions severity (%), Lung (lung congestion) (Rif^r APEC O78 [19]; untreated control = 100%): 0% | reduction of APEC load, Heart (Rif^r APEC O78 [19]; vs untreated control): -2.1 log CFU/g of tissues | reduction of APEC load, Kidney (Rif^r APEC O78 [19]; vs untreated control): -1.4 log CFU/g of tissues | reduction of APEC load, Liver (Rif^r APEC O78 [19]; vs untreated control): -1.8 log CFU/g of tissues | reduction of APEC load, Lung (Rif^r APEC O78 [19]; vs untreated control): -2.0 log CFU/g of tissues | Body weight gain (BWG) (Rif^r APEC O78 [19]; weight of live chickens before necropsy minus weight before treatment): 254.58±95.03 | SMs intracellular APEC clearance concentration [20]: 200^b µM | MBC (APEC O78-53): 200 µM (≈ 79.7 µg/mL) | MIC (APEC O78-53): 100 µM (≈ 39.9 µg/mL) | SMs intracellular APEC clearance concentration [21]: >200 µM | SMs intracellular APEC clearance concentration [22]: 100^a µM | MBC (APEC O35): 200 µM (≈ 79.7 µg/mL) | MIC (APEC O35): 100 µM (≈ 39.9 µg/mL) | MBC (APEC O2): 200 µM (≈ 79.7 µg/mL) | MIC (APEC O2): 100 µM (≈ 39.9 µg/mL) | MBC (APEC O8): 100 µM (≈ 39.9 µg/mL) | MIC (APEC O8): 100 µM (≈ 39.9 µg/mL) | MBC (APEC O15): 100 µM (≈ 39.9 µg/mL) | MIC (APEC O15): 100 µM (≈ 39.9 µg/mL)
